{"source": "patent US20060069132A1", "about": "“Azolecarboxamide herbicides” (priority 2004, published 2006)", "key": {"downy bromegrass": {"tested_on": "downy bromegrass", "assay": "Test C postemergence herbicide test", "type": "in vivo, Bromus tectorum", "method_in_brief": "(§1)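 Injury scored visually against controls on a 0 (no effect) to 100 (complete control) scale, 12 to 14 days after treatment in greenhouse. Flooded paddy plants treated at 2-leaf stage; postemergence plants at 1- to 4-leaf stage, 2 to 18 cm tall.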"}, "green foxtail [1]": {"tested_on": "green foxtail", "assay": "Test C postemergence herbicide test", "type": "in vivo, Setaria viridis", "method_in_brief": "as §1"}, "Italian ryegrass [2]": {"tested_on": "Italian ryegrass", "assay": "Test C postemergence herbicide test", "type": "in vivo, Lolium multiflorum", "settings": "postemergence, scale 0 to 100", "method_in_brief": "as §1"}, "bermudagrass": {"tested_on": "bermudagrass", "assay": "Test E pre-/postemergence herbicide test", "type": "in vivo, Cynodon dactylon", "settings": "Preemergence", "method_in_brief": "(§2)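 Postemergence treatment targeted plants at the 1- to 4-leaf stage (2–18 cm), alongside preemergence treatment of planted seed; both used a non-phytotoxic solvent mixture with surfactant. Visual ratings, 0 = no effect to 100 = complete control, were taken 12 to 14 days later.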"}, "Surinam grass": {"tested_on": "Surinam grass", "assay": "Test E pre-/postemergence herbicide test", "type": "in vivo, Urochloa decumbens", "settings": "Preemergence", "method_in_brief": "as §2"}, "green foxtail [3]": {"tested_on": "green foxtail", "assay": "Test E pre-/postemergence herbicide test", "type": "in vivo, Setaria viridis", "settings": "Preemergence", "method_in_brief": "as §2"}, "mustard": {"tested_on": "mustard", "assay": "Test E pre-/postemergence herbicide test", "type": "in vivo, Brassica nigra", "settings": "Preemergence", "method_in_brief": "as §2"}, "guineagrass": {"tested_on": "guineagrass", "assay": "Test E pre-/postemergence herbicide test", "type": "in vivo, Panicum maximum", "settings": "Preemergence", "method_in_brief": "as §2"}, "barnyardgrass": {"tested_on": "barnyardgrass", "assay": "Test E pre-/postemergence herbicide test", "type": "in vivo, Echinochloa crus-galli", "settings": "Preemergence", "method_in_brief": "as §2"}, "southern sandbur": {"tested_on": "southern sandbur", "assay": "Test E pre-/postemergence herbicide test", "type": "in vivo, Cenchrus echinatus", "settings": "Preemergence", "method_in_brief": "as §2"}, "Italian ryegrass [4]": {"tested_on": "Italian ryegrass", "assay": "Test E pre-/postemergence herbicide test", "type": "in vivo, Lolium multiflorum", "settings": "Preemergence", "method_in_brief": "as §2"}, "broadleaf signalgrass": {"tested_on": "broadleaf signalgrass", "assay": "Test E pre-/postemergence herbicide test", "type": "in vivo, Brachiaria platyphylla", "settings": "Preemergence", "method_in_brief": "as §2"}, "Canada horseweed": {"tested_on": "Canada horseweed", "assay": "Test E pre-/postemergence herbicide test", "type": "in vivo, Erigeron Canadensis", "settings": "Preemergence", "method_in_brief": "as §2"}, "[5]": {"settings": "Postemergence, 250 g ai/ha, scale 0 to 100, 0 no effect, 100 complete control"}, "[6]": {"settings": "postemergence, 125 g ai/ha, scale 0 to 100"}, "[7]": {"settings": "postemergence, 62 g ai/ha, scale 0 to 100"}, "[8]": {"settings": "250 g ai/ha, scale 0 (no effect) to 100 (complete control)"}, "[9]": {"settings": "500 g ai/ha, scale 0 (no effect) to 100 (complete control)"}}}
{"compound": "Cc1nn(C(C)(C)C)nc1C(=O)Nc1cccc(C(=O)N2CC=CC2)c1", "note": "[Compound 393]", "values": [{"measurement": "Plant response rating, Bromegrass, Downy", "setting": "downy bromegrass; [5]", "result": 55}, {"measurement": "Plant response rating, Bromegrass, Downy", "setting": "downy bromegrass; [6]", "result": 45}, {"measurement": "Plant response rating, Bromegrass, Downy", "setting": "downy bromegrass; postemergence, 31 g ai/ha, scale 0 to 100", "result": 40}, {"measurement": "Plant response rating, Bromegrass, Downy", "setting": "downy bromegrass; [7]", "result": 40}, {"measurement": "Plant response rating, Foxtail, Green", "setting": "green foxtail [1]; [5]", "result": 65}, {"measurement": "Plant response rating, Foxtail, Green", "setting": "green foxtail [1]; [6]", "result": 65}, {"measurement": "Plant response rating, Foxtail, Green", "setting": "green foxtail [1]; [7]", "result": 60}, {"measurement": "Plant response rating, Ryegrass, Italian", "setting": "Italian ryegrass [2]; 125 g ai/ha", "result": 60}, {"measurement": "Plant response rating, Ryegrass, Italian", "setting": "Italian ryegrass [2]; 62 g ai/ha", "result": 55}, {"measurement": "Plant response rating, Bermudagrass", "setting": "bermudagrass; 62 g ai/ha, scale 0 to 100", "result": 40}, {"measurement": "Plant response rating, Bermudagrass", "setting": "bermudagrass; 125 g ai/ha, scale 0 to 100", "result": 90}, {"measurement": "Plant response rating, Bermudagrass", "setting": "bermudagrass; [8]", "result": 95}, {"measurement": "Plant response rating, Bermudagrass", "setting": "bermudagrass; [9]", "result": 100}, {"measurement": "Plant response rating, Surinam Grass", "setting": "Surinam grass; 125 g ai/ha, scale 0 to 100", "result": 20}, {"measurement": "Plant response rating, Surinam Grass", "setting": "Surinam grass; [9]", "result": 70}, {"measurement": "Plant response rating, Foxtail, Green", "setting": "green foxtail [3]; 62 g ai/ha, scale 0 to 100", "result": 10}, {"measurement": "Plant response rating, Foxtail, Green", "setting": "green foxtail [3]; 125 g ai/ha, scale 0 to 100", "result": 20}, {"measurement": "Plant response rating, Foxtail, Green", "setting": "green foxtail [3]; [8]", "result": 70}, {"measurement": "Plant response rating, Foxtail, Green", "setting": "green foxtail [3]; [9]", "result": 90}, {"measurement": "Plant response rating, Black Mustard", "setting": "mustard; 62 g ai/ha, scale 0 to 100", "result": 10}, {"measurement": "Plant response rating, Black Mustard", "setting": "mustard; 125 g ai/ha, scale 0 to 100", "result": 80}, {"measurement": "Plant response rating, Black Mustard", "setting": "mustard; [8]", "result": 95}, {"measurement": "Plant response rating, Black Mustard", "setting": "mustard; [9]", "result": 95}, {"measurement": "Plant response rating, Guineagrass", "setting": "guineagrass; 62 g ai/ha, scale 0 to 100", "result": 10}, {"measurement": "Plant response rating, Guineagrass", "setting": "guineagrass; 125 g ai/ha, scale 0 to 100", "result": 70}, {"measurement": "Plant response rating, Guineagrass", "setting": "guineagrass; [8]", "result": 90}, {"measurement": "Plant response rating, Guineagrass", "setting": "guineagrass; [9]", "result": 95}, {"measurement": "Plant response rating, Barnyardgrass", "setting": "barnyardgrass; 62 g ai/ha, scale 0 to 100", "result": 0}, {"measurement": "Plant response rating, Barnyardgrass", "setting": "barnyardgrass; 125 g ai/ha, scale 0 to 100", "result": 60}, {"measurement": "Plant response rating, Barnyardgrass", "setting": "barnyardgrass; [8]", "result": 80}, {"measurement": "Plant response rating, Barnyardgrass", "setting": "barnyardgrass; [9]", "result": 80}, {"measurement": "Plant response rating, Sandbur", "setting": "southern sandbur; 62 g ai/ha, scale 0 to 100", "result": 0}, {"measurement": "Plant response rating, Sandbur", "setting": "southern sandbur; 125 g ai/ha, scale 0 to 100", "result": 50}, {"measurement": "Plant response rating, Sandbur", "setting": "southern sandbur; [8]", "result": 50}, {"measurement": "Plant response rating, Sandbur", "setting": "southern sandbur; [9]", "result": 60}, {"measurement": "Plant response rating, Ryegrass, Italian", "setting": "Italian ryegrass [4]; 62 g ai/ha, scale 0 to 100", "result": 10}, {"measurement": "Plant response rating, Ryegrass, Italian", "setting": "Italian ryegrass [4]; 125 g ai/ha, scale 0 to 100", "result": 20}, {"measurement": "Plant response rating, Ryegrass, Italian", "setting": "Italian ryegrass [4]; [8]", "result": 85}, {"measurement": "Plant response rating, Ryegrass, Italian", "setting": "Italian ryegrass [4]; [9]", "result": 85}, {"measurement": "Plant response rating, Signalgrass", "setting": "broadleaf signalgrass; 62 g ai/ha, scale 0 to 100", "result": 0}, {"measurement": "Plant response rating, Signalgrass", "setting": "broadleaf signalgrass; 125 g ai/ha, scale 0 to 100", "result": 30}, {"measurement": "Plant response rating, Signalgrass", "setting": "broadleaf signalgrass; [8]", "result": 75}, {"measurement": "Plant response rating, Signalgrass", "setting": "broadleaf signalgrass; [9]", "result": 85}, {"measurement": "Plant response rating, Horseweed", "setting": "Canada horseweed; 62 g ai/ha, scale 0 to 100", "result": 90}, {"measurement": "Plant response rating, Horseweed", "setting": "Canada horseweed; 125 g ai/ha, scale 0 to 100", "result": 95}, {"measurement": "Plant response rating, Horseweed", "setting": "Canada horseweed; [8]", "result": 100}, {"measurement": "Plant response rating, Horseweed", "setting": "Canada horseweed; [9]", "result": 100}]}
